Assay results reported in patent US10457710B2, “Antimicrobial peptides, their variants and uses” (priority 2015, dated 2019).
Where a SMILES comes first, the peptide text is derived from it. [ ]: non-standard residue; d: D form.

Tests used:
Format in all cases: cell-based
[1] = tested on: clinical strains of E. cloacae; test: MIC, microdilution, clinical strains; details: 0.02% BSA, 0.2% acetic acid
Procedure: (§1) Minimum inhibition concetrations (MICs) were determined against Escherichia coli (ATCC 25922), Staphylococcus aureus (ATCC 25923), Klebsiella pneumoniae (ATCC 10031) and Pseudomonas aeruginosa (ATCC 27853). Also clinical strains of E. coli, K. pneumoniae, E. cloacae, P. aeruginosa, Serratia marcescens, Proteus mirabilis, S. pneumoniae, Acinetobacter baumannii, A. johnsonii and S. aureus were used for MICs assays. Additionally, clinical strains of yeast including Candida albicans, C. glabrata, C. parapsilosis and C. quillermondiae were used. The susceptibility of these microorganisms to Chain peptides were determined using micro broth dilution assay. Colonies of the respective microorganism from Muller Hinton (MH) agar plates incubated overnight were suspended in MH broth media and final concentration of microorganism was adjusted to 5.0×10^5 cfu/ml. An aliquot of 10 μl of each Chain peptide, or gentamicin, tetracycline as reference antibiotics were added in differing concentrations along with 90 μl of bacterial suspension to 96 well polypropylene plates and incubated at 37° C. for 20 to 24 hours. Concentrations of Chain peptides and reference antibiotics ranged from 0.125 to 128 μg/ml and the MICs were recorded as the lowest concentration with no visual growth of bacteria. Similarly, antifungal MICs were tested in Potato dextrose broth.
(§2) Clinical strains of yeasts including Candida albicans, C. glabrata, C. parapsilosis and C. quillermondiae were also tested with the 12 Chain peptides. The minimum inhibitory concentration (MICs) varied between these peptides and are presented in Tables 4a, 4b, 4c and 5a, 5b, 5c. Peptides Chain 105, 201 and 308 are broad spectrum antimicrobials with MICs between 0.5-32 μg/ml against all the bacteria and yeasts tested, except Serratia marcescens and Proteus mirabilis, against which the MICs were between 64-128 μg/ml. Peptide Chain 306 has narrow spectrum activity against E. coli at 1 μg/ml and for the rest of the bacterial strains at >32 μg/ml (FIG. 10c).

[2] = tested on: clinical strains of E. coli; test: MIC, microdilution, clinical strains; details: microdilution, Muller Hinton broth-cation adjusted, 0.02% BSA, 0.2% acetic acid
Procedure: as §1, §2

[3] = tested on: clinical strains of K. pneumoniae; test: MIC, microdilution, clinical strains; details: 0.02% BSA, 0.2% acetic acid
Procedure: as §1, §2

[4] = tested on: clinical strains of P. aeruginosa; test: MIC, microdilution, clinical strains; details: 0.02% BSA, 0.2% acetic acid
Procedure: as §1, §2

[5] = tested on: clinical strains of Proteus mirabilis; test: MIC, microdilution, clinical strains; details: 0.02% BSA, 0.2% acetic acid
Procedure: as §1, §2

[6] = tested on: clinical strains of S. aureus; test: MIC, microdilution, clinical strains; details: 0.02% BSA, 0.2% acetic acid
Procedure: as §1, §2

[7] = tested on: clinical strains of S. pneumoniae; test: MIC, microdilution, clinical strains; details: 0.02% BSA, 0.2% acetic acid
Procedure: as §1, §2

[8] = tested on: clinical strains of Serratia marcescens; test: MIC, microdilution, clinical strains; details: 0.02% BSA, 0.2% acetic acid
Procedure: as §1, §2

C. glabrata = test: MIC, clinical yeast strains
Procedure: as §1, §2

C. parapsilosis = test: MIC, clinical yeast strains
Procedure: as §1, §2

Candida albicans = test: MIC, clinical yeast strains
Procedure: as §1, §2

C. quillermondiae = test: MIC, clinical yeast strains; design: Minimum inhibitory concentration: unit: μg/ml; details: C. quillermondiae clinical yeast strain 1
Procedure: as §1, §2

Measured: Minimum inhibitory concentration

CC(C)C[C@@H](NC(=O)[C@H](N)CCCNC(=N)N)C(=O)N[C@H](CCCCN)C(=O)N[C@H](Cc1c[nH]c2ccccc12)C(=O)N[C@H](Cc1ccccc1)C(=O)N[C@H](Cc1c[nH]c2ccccc12)C(=O)N[C@H](CC(C)C)C(=O)N[C@H](Cc1ccccc1)C(=O)N[C@H](CCCNC(=N)N)C(=O)N[C@H](CCCCN)C(=O)N[C@H](CCCNC(=N)N)C(=O)O [Chain307D] (H-[dR][dL][dK][dW][dF][dW][dL][dF][dR][dK][dR]-OH)
>128: [5]; Proteus mirabilis strain 1, Muller Hinton broth-cation adjusted | [5]; Proteus mirabilis strain 4, Muller Hinton broth-cation adjusted | [5]; Proteus mirabilis strain 5, Muller Hinton broth-cation adjusted | [8]; Serratia marcescens strain 1, Muller Hinton broth-cation adjusted | [8]; Serratia marcescens strain 2, Muller Hinton broth-cation adjusted | [8]; Serratia marcescens strain 4, Muller Hinton broth-cation adjusted | [8]; Serratia marcescens strain 5, Muller Hinton broth-cation adjusted
4: [1]; Enterobacter cloacae strain 1, Muller Hinton broth-cation adjusted | [1]; Enterobacter cloacae strain 3, Muller Hinton broth-cation adjusted | [1]; Enterobacter cloacae strain 4, Muller Hinton broth-cation adjusted | [1]; Enterobacter cloacae strain 5, Muller Hinton broth-cation adjusted | [2]; Escherichia coli strain 1 | [2]; Escherichia coli strain 2 | [2]; Escherichia coli strain 3 | [2]; Escherichia coli strain 5 | [3]; Klebsiella pneumoniae strain 5, Muller Hinton broth-cation adjusted | [7]; Streptococcus pneumoniae strain 1, Muller Hinton broth-cation adjusted | [7]; Streptococcus pneumoniae strain 2, Muller Hinton broth-cation adjusted | [7]; Streptococcus pneumoniae strain 3, Muller Hinton broth-cation adjusted | C. quillermondiae
128: [5]; Proteus mirabilis strain 2, Muller Hinton broth-cation adjusted | [5]; Proteus mirabilis strain 3, Muller Hinton broth-cation adjusted | [8]; Serratia marcescens strain 3, Muller Hinton broth-cation adjusted
8: [1]; Enterobacter cloacae strain 2, Muller Hinton broth-cation adjusted | [3]; Klebsiella pneumoniae strain 1, Muller Hinton broth-cation adjusted | [3]; Klebsiella pneumoniae strain 2, Muller Hinton broth-cation adjusted | [4]; Pseudomonas aeruginosa strain 4, Muller Hinton broth-cation adjusted | [4]; Pseudomonas aeruginosa strain 5, Muller Hinton broth-cation adjusted | C. glabrata; C. glabrata clinical yeast strain 1 | C. glabrata; C. glabrata clinical yeast strain 3 | C. parapsilosis; C. parapsilosis clinical yeast strain 2 | C. parapsilosis; C. parapsilosis clinical yeast strain 3 | C. parapsilosis; C. parapsilosis clinical yeast strain 4
2: [2]; Escherichia coli strain 4 | [6]; Staphylococcus aureus strain 1, Muller Hinton broth-cation adjusted | [6]; Staphylococcus aureus strain 2, Muller Hinton broth-cation adjusted | [6]; Staphylococcus aureus strain 3, Muller Hinton broth-cation adjusted | [6]; Staphylococcus aureus strain 4, Muller Hinton broth-cation adjusted | [6]; Staphylococcus aureus strain 5, Muller Hinton broth-cation adjusted | [7]; Streptococcus pneumoniae strain 4, Muller Hinton broth-cation adjusted | [7]; Streptococcus pneumoniae strain 5, Muller Hinton broth-cation adjusted
16: [3]; Klebsiella pneumoniae strain 3, Muller Hinton broth-cation adjusted | [3]; Klebsiella pneumoniae strain 4, Muller Hinton broth-cation adjusted | [4]; Pseudomonas aeruginosa strain 1, Muller Hinton broth-cation adjusted | [4]; Pseudomonas aeruginosa strain 2, Muller Hinton broth-cation adjusted | [4]; Pseudomonas aeruginosa strain 3, Muller Hinton broth-cation adjusted | C. glabrata; C. glabrata clinical yeast strain 2 | C. glabrata; C. glabrata clinical yeast strain 4 | C. parapsilosis; C. parapsilosis clinical yeast strain 1 | Candida albicans; Candida albicans clinical yeast strain 1 | Candida albicans; Candida albicans clinical yeast strain 2 | Candida albicans; Candida albicans clinical yeast strain 3 | Candida albicans; Candida albicans clinical yeast strain 4 | Candida albicans; Candida albicans clinical yeast strain 5
